In patent US20110318403A1, “Preparation and Use of Pouteria Lucuma Extract” (priority 2008, published 2011):

Columns and labels:
[1] = test system: dermal wounds of CD-1 mice; assay: CD-1 mouse excision wound healing assay; format: in vivo; details: topical once daily, 10 μg/mouse, CT50 ± SE
Experimental: The LNO extract of Example 1 was further used in two in vivo models to assess wound healing and regeneration. […] In this experiment, a 12 mm skin punch was used to create a wound in mice and the mice were then divided into three groups, i.e., a negative control group, an experimental group and a positive control group. Immediately following wounding, the wounds were treated for ten days with either vehicle (0.5% carboxymethylcellulose in PBS), lucuma nut oil (LNO) (200 μg/mouse) in vehicle, or the positive control CGS-21680 (CAS120225-54-9, a specific adenosine A2A receptor agonist offered commercially by Tocris; see U.S. Pat. No. 4,968,697), also in vehicle. […] Wound healing assays were performed by MDS Pharma Services, Taiwan, MDSPS Testing Code 1115924, according to the protocol describe elsewhere (Kapoor, et al., J. Clin. Invest., 118:3279-3290 (2008); Montesinos, et al., J. Exp. Med., 186:1615-1620 (1997), each description incorporated herein by reference). Briefly, groups of 5 male CD-1 mice weighing 22±2 g were used for this assay. […] The wounded area was traced onto clear plastic sheets on days 3, 5, 7, 9 and 11 and quantitated by using an Image Analyzer (Life Science Resources VISTA, Version 30). […]

[2] = test system: transgenic zebrafish larvae tail fin (GFP-positive endothelial cells); assay: zebrafish larvae tailfin primordia amputation regeneration / angiogenesis assay; format: in vivo; details: 48 hours after amputation
Text: A tailfin model of in vivo wound healing and regeneration was also used to assess the ability of a lucuma nut oil extract to promote appropriate wound healing, and the results of these assays also provided information on the angiogenic properties of LNO. In this transgenic model, the fli1 promoter drives expression of green fluorescent protein (GFP) in all the vascular endothelial cells, which allows tracking of wound healing in real time by direct observation of angiogenesis. Forty-eight-hour-old or five-day-old zebrafish larvae (AB strain) were anesthetized in 0.04% 3-amino benzoic acid ethylester (tricaine; MS-222) and placed in 2% agar Petri dishes. Surgical blades were used to amputate tailfin primordia just posterior to the notochord. Larvae were placed in 24-well plates containing either water (control), CGS-21680 (50 μg/mL; CAS120225-54-9) or LNO (10-100 μg/mL in water) and incubated at 28° C. Primordia re-growth was measured using fluorescence microscopy and image analysis of fluorescent endothelial cells. For this assay, the fin fluorescent area was normalized against the total fin area. […] The effects of LNO were analyzed and compared to the positive control CGS-21680 (2-p-(2-Carboxyethyl)phenethylamino-5′-N-ethylcarboxamidoadenosine). […]

[3] = test system: Human neonatal fibroblasts; assay: scratched fibroblast assay (wound closure of monolayer); format: cell-based; details: equivalent concentrations of pure FAs (LA 24 μg/mL, OA 18 μg/mL), 24 hours
Experimental: Human neonatal fibroblasts were maintained in Dulbecco's Modified Eagle Medium (D-MEM)+10% fetal bovine serum (FBS) and were kept in a humidified 37° C. incubator with 5% CO2. Cells were plated at a density of 1×10^4 cells per well in a 24-well plate and incubated for 24 hours, or until 100% confluency was reached. Each monolayer was wounded by dragging a pipette tip across the bottom of the well, using a straight edge as a guide (approximately 1.3 mm in width). The media was removed and cells were washed with 500 μL PBS twice to remove detached cells or cell debris. The cells were treated as follows: DMEM+10% FBS+vehicle (0.06% glycerol, positive control), DMEM+vehicle (0.06% glycerol, negative control), DMEM+vehicle (0.06% glycerol)+LNO (60 μg/mL), DMEM+vehicle (0.06% glycerol)+LA (24 μg/mL) and DMEM+vehicle (0.06% glycerol)+OA (18 μg/mL). Photos were taken of each well to measure the initial area of the wound. After 24 hours incubation, wells were photographed again. The scratched area was measured using […] Photoshop CS software, and percentage of wound closure at each time point was derived by the following formula: (1−[current wound size/initial wound size])×100.

Compound	Dermal wound closure expressed as half-closure time (CT50) [1] [days]	GFP-positive endothelial cells in regenerating tail fin (angiogenesis) [2]	cell migration in scratched fibroblasts compared with LNO 60 μg/mL [3]
CCNC(=O)[C@H]1O[C@@H](n2cnc3c(N)nc(NCCc4ccc(CCC(=O)O)cc4)nc32)[C@H](O)[C@@H]1O [CGS, 2-p-(2-Carboxyethyl)phenethylamino-5′-N-ethylcarboxamidoadenosine]	6.04 ± 0.2		
CCCCC/C=C\C/C=C\CCCCCCCC(=O)O [LA, linoleic acid]		not found	not able to reproduce the effect of LNO in cell migration
CCCCCCCC/C=C\CCCCCCCC(=O)O [OA, oleic acid]		not found	not able to reproduce the effect of LNO in cell migration
